Measured values: PubChem BioAssay AID1259407 (Chemical Carcinogenesis Research Information System (CCRIS), 2018)
Active and inactive are the calls of the source. No rule for the calls is given here.

Test system: CCRIS mutagenicity, Ames/micronucleus/aberration tests
Assay: CCRIS mutagenicity studies
[1] = Test System: AMES SALMONELLA TYPHIMURIUM, Strain/Indicator: TA98(1,8-DNP6), Metabolic Activation: NONE, Method: STANDARD PLATE
[2] = Test System: AMES SALMONELLA TYPHIMURIUM, Strain/Indicator: TA98(NR), Metabolic Activation: NONE, Method: STANDARD PLATE
[3] = Test System: AMES SALMONELLA TYPHIMURIUM, Strain/Indicator: TA98, Metabolic Activation: NONE, Method: STANDARD PLATE
[4] = Test System: AMES SALMONELLA TYPHIMURIUM, Strain/Indicator: TA100, Metabolic Activation: NONE, Method: STANDARD PLATE
[5] = Test System: AMES SALMONELLA TYPHIMURIUM, Strain/Indicator: TA98, Metabolic Activation: NONE, Method: PREINCUBATION
[6] = Test System: AMES SALMONELLA TYPHIMURIUM, Strain/Indicator: TA100, Metabolic Activation: NONE, Method: PREINCUBATION

O=C1OCCN1N=Cc1ccc([N+](=O)[O-])o1
mutagenic call (End Point: In vivo micronucleus, Test System: Bone marrow polychromatic erythrocytes, Species: Rat, Strain/Sex: Sprague-Dawley/Female, Route: Oral): inactive; positive (p</=0.05 for mononuclei; p</=0.01 for binuclei for furazolidone alone;
mutagenic call [1]: active; positive
mutagenic call (Test System: AMES SALMONELLA TYPHIMURIUM, Strain/Indicator: TA98(1,8-DNP6), Metabolic Activation: RAT, LIVER, S-9, 3-METHYLCHOLANTHRENE, Method: STANDARD PLATE): active; positive
mutagenic call [2]: active; positive
mutagenic call (Test System: AMES SALMONELLA TYPHIMURIUM, Strain/Indicator: TA98(NR), Metabolic Activation: RAT, LIVER, S-9, 3-METHYLCHOLANTHRENE, Method: STANDARD PLATE): active; positive
mutagenic call (Test System: AMES SALMONELLA TYPHIMURIUM, Strain/Indicator: TA98, Metabolic Activation: NONE): active; positive
mutagenic call [3]: active; positive
mutagenic call (Test System: AMES SALMONELLA TYPHIMURIUM, Strain/Indicator: TA98, Metabolic Activation: RAT, LIVER, S-9, 3-METHYLCHOLANTHRENE, Method: STANDARD PLATE): active; positive
mutagenic call (Test System: AMES SALMONELLA TYPHIMURIUM, Strain/Indicator: TA98, Metabolic Activation: S-9): active; positive
mutagenic call (Test System: AMES SALMONELLA TYPHIMURIUM, Strain/Indicator: TA100, Metabolic Activation: NONE): active; positive
mutagenic call (Test System: AMES SALMONELLA TYPHIMURIUM, Strain/Indicator: TA100, Metabolic Activation: S-9): active; positive
mutagenic call (Test System: CHINESE HAMSTER OVARY, Strain/Indicator: CHO-AS52, Metabolic Activation: NONE): inactive; negative
mutagenic call (Test System: CHINESE HAMSTER OVARY, Strain/Indicator: CHO-AS52, Metabolic Activation: RAT, LIVER, S-9, 3-METHYLCHOLANTHRENE): inactive; negative
mutagenic call (Test System: CHINESE HAMSTER OVARY, Strain/Indicator: CHO-K1-BH4, Metabolic Activation: NONE): active; positive
mutagenic call (Test System: CHINESE HAMSTER OVARY, Strain/Indicator: CHO-K1-BH4, Metabolic Activation: RAT, LIVER, S-9, 3-METHYLCHOLANTHRENE): active; positive
mutagenic call (Test System: CHINESE HAMSTER OVARY, Strain/Indicator: CHO-UV5, Metabolic Activation: NONE): active; positive
mutagenic call (Test System: CHINESE HAMSTER OVARY, Strain/Indicator: CHO-UV5, Metabolic Activation: RAT, LIVER, S-9, 3-METHYLCHOLANTHRENE): active; positive
mutagenic call (Test System: E. COLI, Strain/Indicator: TC3960, Metabolic Activation: NONE, Method: PREINCUBATION): active; positive
mutagenic call (Test System: E. COLI, Strain/Indicator: WP2, Metabolic Activation: NONE, Method: SPOT): active; positive
mutagenic call (Test System: E. COLI, Strain/Indicator: WP2 UVRA, Metabolic Activation: NONE, Method: SPOT): active; positive

CC(=O)OCc1c2ccccc2c2ccc3cccc4ccc1c2c43
mutagenic call [3]: active; positive
mutagenic call [4]: active; positive

CC[C@H]1OC(=O)[C@H](C)[C@@H](O[C@H]2C[C@@](C)(OC)[C@@H](O)[C@H](C)O2)[C@H](C)[C@@H](O[C@@H]2O[C@H](C)C[C@H](N(C)C)[C@H]2O)[C@](C)(O)C[C@@H](C)/C(=N\OCOCCOC)[C@H](C)[C@@H](O)[C@]1(C)O
mutagenic call [5]: inactive; negative
mutagenic call (Test System: AMES SALMONELLA TYPHIMURIUM, Strain/Indicator: TA98, Metabolic Activation: RAT, LIVER, S-9, PHENOBARBITAL, Method: PREINCUBATION): inactive; negative
mutagenic call [6]: inactive; negative
mutagenic call (Test System: AMES SALMONELLA TYPHIMURIUM, Strain/Indicator: TA100, Metabolic Activation: RAT, LIVER, S-9, PHENOBARBITAL, Method: PREINCUBATION): inactive; negative
mutagenic call (Test System: AMES SALMONELLA TYPHIMURIUM, Strain/Indicator: TA1535, Metabolic Activation: NONE, Method: PREINCUBATION): inactive; negative
mutagenic call (Test System: AMES SALMONELLA TYPHIMURIUM, Strain/Indicator: TA1535, Metabolic Activation: RAT, LIVER, S-9, PHENOBARBITAL, Method: PREINCUBATION): inactive; negative
mutagenic call (Test System: AMES SALMONELLA TYPHIMURIUM, Strain/Indicator: TA1537, Metabolic Activation: NONE, Method: PREINCUBATION): inactive; negative
mutagenic call (Test System: AMES SALMONELLA TYPHIMURIUM, Strain/Indicator: TA1537, Metabolic Activation: RAT, LIVER, S-9, PHENOBARBITAL, Method: PREINCUBATION): inactive; negative
mutagenic call (Test System: E. COLI, Strain/Indicator: WP2 UVRA, Metabolic Activation: NONE, Method: PREINCUBATION): inactive; negative
mutagenic call (Test System: E. COLI, Strain/Indicator: WP2 UVRA, Metabolic Activation: RAT, LIVER, S-9, PHENOBARBITAL, Method: PREINCUBATION): inactive; negative

O=[N+]([O-])c1ccc2ccc3ccc([N+](=O)[O-])cc3c2c1
mutagenic call [1]: active; positive
mutagenic call [2]: active; positive
mutagenic call [3]: active; positive
mutagenic call [4]: active; positive
mutagenic call (Test System: AMES SALMONELLA TYPHIMURIUM, Strain/Indicator: YG1021, Metabolic Activation: NONE, Method: STANDARD PLATE): active; positive
mutagenic call (Test System: AMES SALMONELLA TYPHIMURIUM, Strain/Indicator: YG1024, Metabolic Activation: NONE, Method: STANDARD PLATE): active; positive
mutagenic call (Test System: AMES SALMONELLA TYPHIMURIUM, Strain/Indicator: YG1026, Metabolic Activation: NONE, Method: STANDARD PLATE): active; positive
mutagenic call (Test System: AMES SALMONELLA TYPHIMURIUM, Strain/Indicator: YG1029, Metabolic Activation: NONE, Method: STANDARD PLATE): active; positive

[N-]=[N+]=NC[C@H]1O[C@H](O)[C@@H](O)[C@H](O)[C@@H]1O
mutagenic call [3]: inactive; negative
mutagenic call [4]: active; positive

O=C(O)C(Br)(Br)Br
mutagenic call (Test System: AMES SALMONELLA TYPHIMURIUM, Strain/Indicator: RSJ100, Metabolic Activation: NONE, Method: PREINCUBATION): inactive; negative
mutagenic call (Test System: AMES SALMONELLA TYPHIMURIUM, Strain/Indicator: RSJ100, Metabolic Activation: RAT LIVER S-9, Method: PREINCUBATION): inactive; negative
mutagenic call [5]: inactive; negative
mutagenic call (Test System: AMES SALMONELLA TYPHIMURIUM, Strain/Indicator: TA98, Metabolic Activation: RAT LIVER S-9, Method: PREINCUBATION): inactive; negative
mutagenic call (Test System: AMES SALMONELLA TYPHIMURIUM, Strain/Indicator: TA100, Metabolic Activation: NONE, Method: FLUCTUATION TEST): active; positive
mutagenic call [6]: inactive; negative
mutagenic call (Test System: AMES SALMONELLA TYPHIMURIUM, Strain/Indicator: TA100, Metabolic Activation: RAT LIVER S-9, Method: PREINCUBATION): inactive; negative
mutagenic call (Test System: AMES SALMONELLA TYPHIMURIUM, Strain/Indicator: TA100, Metabolic Activation: RAT, LIVER, S-9, AROCLOR 1254, Method: FLUCTUATION TEST): active; positive
